According to PubChem BioAssay AID192 (DTP/NCI, 2004):
“And” between values parts separate entries of the source, which are not always exact repeats. Equal values may be shown once. Toxic doses and inconclusive results are not listed. How the source made its calls: active means survival T/C of 150% or more; inactive means T/C below 125% in these data.

System: BDF1 mice, B16 melanoma ip, median survival T/C
Assay: NCI In Vivo Anticancer Drug Screen. Data for tumor model B16 Melanoma (intraperitoneal) in B6D2F1 (BDF1) mice
Conditions: endpoint: median survival time, higher = longer survival
Summary of the method: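 Transplantable tumor model; survival or tumor size measured; reported as T/C, treated over vehicle control.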

[1] = dose: 6.25 mg/kg/injection, schedule: Q01DX009 (ip), vehicle: Klucel (hydroxypropylcellulose) (HPC)
[2] = dose: 12.5 mg/kg/injection, schedule: Q01DX009 (ip), vehicle: Klucel (hydroxypropylcellulose) (HPC)
[3] = dose: 25.0 mg/kg/injection, schedule: Q01DX009 (ip), vehicle: Klucel (hydroxypropylcellulose) (HPC)
[4] = dose: 25.0 mg/kg/injection, schedule: Q01DX009 (ip), vehicle: saline with Tween-80
[5] = dose: 50.0 mg/kg/injection, schedule: Q01DX009 (ip), vehicle: saline with Tween-80
[6] = dose: 100.0 mg/kg/injection, schedule: Q01DX009 (ip), vehicle: saline with Tween-80
[7] = dose: 1.56 mg/kg/injection, schedule: Q01DX009 (ip), vehicle: Klucel (hydroxypropylcellulose) (HPC)
[8] = dose: 3.12 mg/kg/injection, schedule: Q01DX009 (ip), vehicle: Klucel (hydroxypropylcellulose) (HPC)
[9] = dose: 50.0 mg/kg/injection, schedule: Q01DX009 (ip), vehicle: Klucel (hydroxypropylcellulose) (HPC)
[10] = dose: 100.0 mg/kg/injection, schedule: Q01DX009 (ip), vehicle: Klucel (hydroxypropylcellulose) (HPC)
[11] = dose: 200.0 mg/kg/injection, schedule: Q01DX009 (ip), vehicle: saline with Tween-80
[12] = dose: 400.0 mg/kg/injection, schedule: Q01DX009 (ip), vehicle: saline with Tween-80
[13] = dose: 100.0 mg/kg/injection, schedule: Q04DX003 (ip), vehicle: saline with Tween-80
[14] = dose: 200.0 mg/kg/injection, schedule: Q04DX003 (ip), vehicle: saline with Tween-80
[15] = dose: 400.0 mg/kg/injection, schedule: Q04DX003 (ip), vehicle: saline with Tween-80
[16] = dose: 200.0 mg/kg/injection, schedule: Q01DX009 (ip), vehicle: Klucel (hydroxypropylcellulose) (HPC)
[17] = dose: 12.5 mg/kg/injection, schedule: Q04DX003 (ip), vehicle: saline
[18] = dose: 25.0 mg/kg/injection, schedule: Q04DX003 (ip), vehicle: saline
[19] = dose: 50.0 mg/kg/injection, schedule: Q04DX003 (ip), vehicle: saline
[20] = dose: 12.5 mg/kg/injection, schedule: Q01DX009 (ip), vehicle: saline with Tween-80
[21] = dose: 50.0 mg/kg/injection, schedule: Q04DX003 (ip), vehicle: Klucel (hydroxypropylcellulose) (HPC)

Measured: T/C

CC(Cc1ccccc1)NC(C#N)c1ccccc1 (centres undefined)
inactive: [1] 100 % of control | [2] 87 % of control | [3] 90 % of control

COC1OC2COC(c3ccccc3)OC2C(O)C1N (centres undefined)
inactive: [4] 95 % of control | dose: 33.0 mg/kg/injection, schedule: Q04DX003 (ip), vehicle: saline with Tween-80 91 % of control | [5] 95 % of control | dose: 75.0 mg/kg/injection, schedule: Q04DX003 (ip), vehicle: saline with Tween-80 93 % of control | [6] 90 % of control

CC[C@@H](C)[C@@H]1NC(=O)C(NC(=O)C(CC(C)C)N(C)C(=O)C2CCCN2C(=O)C(C)O)C(C)OC(=O)C(Cc2ccc(OC)cc2)N(C)C(=O)C2CCCN2C(=O)C(CC(C)C)NC(=O)C(C)C(=O)C(C(C)C)OC(=O)C[C@H]1O (some centres undefined)
active: dose: 80.0 micrograms/kg/injection, schedule: Q01DX009 (ip), vehicle: clinical formulation 161 % of control | dose: 160.0 micrograms/kg/injection, schedule: Q01DX009 (ip), vehicle: clinical formulation 160 % of control | dose: 160.0 micrograms/kg/injection, schedule: Q01DX009 (ip), vehicle: distilled water + alcohol 160 % of control | dose: 320.0 micrograms/kg/injection, schedule: Q01DX009 (ip), vehicle: clinical formulation 153 % of control | dose: 320.0 micrograms/kg/injection, schedule: Q01DX009 (ip), vehicle: distilled water + alcohol 172 % of control

COc1cc2c(c(OC)c1OC)-c1ccc(SCc3ccccc3)c(=O)cc1[C@@H](NC(C)=O)CC2
inactive: [7] 91 % of control and 111 % of control | [8] 102 % of control and 107 % of control | [1] 101 % of control and 106 % of control | [2] 109 % of control and 111 % of control | [3] 113 % of control

Oc1ccc(Br)cc1-c1nc2cc(Cl)c(Cl)cc2nc1-c1cc(Br)ccc1O
inactive: [3] 87 % of control | [9] 86 % of control | [10] 91 % of control and 94 % of control

COC(=O)c1cc(I)ccc1O
inactive: [6] 102 % of control | [11] 104 % of control | [12] 102 % of control

COc1ccc(N=C(c2ccccc2)c2ccccc2)cc1
inactive: [13] 95 % of control | [14] 86 % of control | [15] 90 % of control

C=C(C)[C@@H]1CC[C@]2(CO)CC[C@]3(C)[C@H](CC[C@@H]4[C@@]5(C)CC[C@H](O)C(C)(C)[C@@H]5CC[C@]43C)[C@@H]12
inactive: [10] 99 % of control | [16] 97 % of control | dose: 400.0 mg/kg/injection, schedule: Q01DX009 (ip), vehicle: Klucel (hydroxypropylcellulose) (HPC) 95 % of control

O=C(O)CCCSc1nc2ccccc2s1
inactive: [6] 100 % of control | [11] 95 % of control

O=S(=O)(Nc1ccc(O)cc1)c1ccccc1
inactive: [6] 97 % of control | [11] 93 % of control | [12] 90 % of control

CC[C@@]1(O)C(=O)OCc2c1cc1n(c2=O)Cc2cc3ccccc3nc2-1
active: dose: 0.39 mg/kg/injection, schedule: Q01DX009 (ip), vehicle: other 151 % of control | dose: 0.79 mg/kg/injection, schedule: Q01DX009 (ip), vehicle: other 189 % of control

Cc1nc(C(N)=O)c(=O)[nH]c1C
inactive: [17] 97 % of control | [18] 102 % of control | dose: 50.0 mg/kg/injection, schedule: Q04DX003 (ip), vehicle: saline with Tween-80 97 % of control | [19] 100 % of control | [13] 102 % of control | [14] 100 % of control | [15] 104 % of control

C[C@]12CC[C@@H]3c4ccc(Oc5nc(N6CC6)nc(N6CC6)n5)cc4CC[C@H]3[C@@H]1CCC2=O
inactive: dose: 3.13 mg/kg/injection, schedule: Q01DX009 (ip), vehicle: saline 104 % of control | dose: 6.25 mg/kg/injection, schedule: Q01DX009 (ip), vehicle: saline 113 % of control | dose: 6.25 mg/kg/injection, schedule: Q04DX003 (ip), vehicle: saline 97 % of control | dose: 12.5 mg/kg/injection, schedule: Q01DX009 (ip), vehicle: saline 104 % of control | [17] 97 % of control | [18] 102 % of control | [19] 97 % of control

CCCCCC#CC(=O)OC
inactive: [20] 102 % of control | [4] 86 % of control | [5] 86 % of control

CS(C)=O
inactive: dose: 1:200.0 dilution, schedule: Q03HX088 (ip), vehicle: saline 89 % of control | dose: 1:400.0 dilution, schedule: Q03HX088 (ip), vehicle: saline 89 % of control | dose: 1.5 grams/kg/injection, schedule: Q01DX009 (ip), vehicle: saline 96 % of control and 101 % of control | dose: 3.0 grams/kg/injection, schedule: Q01DX009 (ip), vehicle: saline 106 % of control and 108 % of control | dose: 6.0 grams/kg/injection, schedule: Q01DX009 (ip), vehicle: saline 97 % of control

Cc1ccccc1NC(=O)Nc1cccc(C)c1C
inactive: [21] 90 % of control | dose: 100.0 mg/kg/injection, schedule: Q04DX003 (ip), vehicle: Klucel (hydroxypropylcellulose) (HPC) 96 % of control | dose: 200.0 mg/kg/injection, schedule: Q04DX003 (ip), vehicle: Klucel (hydroxypropylcellulose) (HPC) 93 % of control

CCOC(=O)c1ccc(NS(C)(=O)=O)cc1
inactive: dose: 75.0 mg/kg/injection, schedule: Q01DX009 (ip), vehicle: Klucel (hydroxypropylcellulose) (HPC) 94 % of control | dose: 150.0 mg/kg/injection, schedule: Q01DX009 (ip), vehicle: Klucel (hydroxypropylcellulose) (HPC) 102 % of control | dose: 300.0 mg/kg/injection, schedule: Q01DX009 (ip), vehicle: Klucel (hydroxypropylcellulose) (HPC) 108 % of control

CCNCCCOCC
inactive: [17] 104 % of control | [18] 102 % of control | [19] 102 % of control

CC1(C)N=C(N)N=C(N)N1c1ccc(OCCOc2ccc(S(=O)(=O)F)cc2)c(Cl)c1
inactive: [17] 107 % of control | [18] 121 % of control

CCCCC(C(=O)OCC)C(CCC1CCCCC1)(C(=O)OCC)C(=O)OCC (centres undefined)
inactive: dose: 12.5 mg/kg/injection, schedule: Q04DX003 (ip), vehicle: Klucel (hydroxypropylcellulose) (HPC) 90 % of control | dose: 25.0 mg/kg/injection, schedule: Q04DX003 (ip), vehicle: Klucel (hydroxypropylcellulose) (HPC) 99 % of control | [21] 87 % of control and 89 % of control

C[N+](C)(CCO)Cc1ccccc1
inactive: [5] 95 % of control | [6] 90 % of control

C=C1C(=O)O[C@@H]2C[C@@H](C)[C@@H]3C=CC(=O)[C@@]3(C)[C@@H](O)[C@H]12
inactive: dose: 2.0 mg/kg/injection, schedule: Q01DX009 (ip), vehicle: saline + alcohol 120 % of control | dose: 2.0 mg/kg/injection, schedule: Q01DX009 (ip), vehicle: saline 104 % of control | dose: 4.0 mg/kg/injection, schedule: Q01DX009 (ip), vehicle: saline + alcohol 115 % of control | dose: 4.0 mg/kg/injection, schedule: Q01DX009 (ip), vehicle: saline 95 % of control | dose: 8.0 mg/kg/injection, schedule: Q01DX009 (ip), vehicle: saline + alcohol 115 % of control | dose: 8.0 mg/kg/injection, schedule: Q01DX009 (ip), vehicle: saline 105 % of control

O=C(NCCCN1CCOCC1)C(Oc1ccccc1)Oc1ccccc1
inactive: dose: 0.09 mg/kg/injection, schedule: Q01DX009 (ip), vehicle: Klucel (hydroxypropylcellulose) (HPC) 88 % of control | dose: 0.19 mg/kg/injection, schedule: Q01DX009 (ip), vehicle: Klucel (hydroxypropylcellulose) (HPC) 92 % of control | dose: 0.78 mg/kg/injection, schedule: Q01DX009 (ip), vehicle: Klucel (hydroxypropylcellulose) (HPC) 87 % of control | [7] 88 % of control | [2] 92 % of control | [3] 86 % of control and 103 % of control | [9] 90 % of control

Nc1cc(N)cc(Cc2ccccc2)c1
inactive: [9] 101 % of control | [10] 93 % of control | [16] 100 % of control

CCC1CCCCC1(O)CC (centres undefined)
inactive: [9] 98 % of control | [10] 99 % of control

COc1cc(C=Nc2cccc(Br)c2)ccc1N(CCCl)CCCl
active: dose: 6.25 mg/kg/injection, schedule: Q01DX009 (ip), vehicle: saline with Tween-80 164 % of control | [2] 163 % of control | [20] 158 % of control
inactive: dose: 0.8 mg/kg/injection, schedule: Q01DX009 (ip), vehicle: saline with Tween-80 113 % of control | [7] 113 % of control | [8] 115 % of control
